Data from PubChem BioAssay (NCI).
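Values below derive from 48-hour exposures of cells grown in 96-well plates, with endpoints linearly interpolated between the two concentrations bracketing the appropriate inhibition level. TGI denotes the concentration required for complete inhibition of growth.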

Experiments:
Assay in all cases: DTP human tumour cell line panel, 48 h
SN12C renal = system: SN12C renal
NCI/ADR-RES ovarian = system: NCI/ADR-RES ovarian
SF-295 CNS = system: SF-295 CNS
COLO 205 colon = system: COLO 205 colon
SK-MEL-28 melanoma = system: SK-MEL-28 melanoma
SK-OV-3 ovarian = system: SK-OV-3 ovarian
OVCAR-8 ovarian = system: OVCAR-8 ovarian
HOP-62 NSCLC = system: HOP-62 NSCLC
ACHN renal = system: ACHN renal
HCT-15 colon = system: HCT-15 colon
MDA-N = system: MDA-N
KM12 colon = system: KM12 colon
A549 NSCLC = system: A549 NSCLC
HOP-92 NSCLC = system: HOP-92 NSCLC
DU-145 prostate = system: DU-145 prostate
MDA-MB-231 breast = system: MDA-MB-231 breast
786-0 renal = system: 786-0 renal
MDA-MB-435 = system: MDA-MB-435
HT29 colon = system: HT29 colon
NCI-H23 lung = system: NCI-H23 lung
LOX IMVI melanoma = system: LOX IMVI melanoma
HL-60(TB) leukemia = system: HL-60(TB) leukemia
A498 renal = system: A498 renal
OVCAR-5 ovarian = system: OVCAR-5 ovarian
EKVX NSCLC = system: EKVX NSCLC
SK-MEL-5 melanoma = system: SK-MEL-5 melanoma
MCF7 breast = system: MCF7 breast
SNB-75 CNS = system: SNB-75 CNS
NCI-H460 lung = system: NCI-H460 lung
OVCAR-3 ovarian = system: OVCAR-3 ovarian
HCC-2998 colon = system: HCC-2998 colon
UO-31 renal = system: UO-31 renal
CAKI-1 renal = system: CAKI-1 renal
SF-539 CNS = system: SF-539 CNS
SK-MEL-2 melanoma = system: SK-MEL-2 melanoma
UACC-62 melanoma = system: UACC-62 melanoma
M14 melanoma = system: M14 melanoma
MOLT-4 leukemia = system: MOLT-4 leukemia
U251 CNS = system: U251 CNS
SW-620 colon = system: SW-620 colon
RPMI-8226 leukemia = system: RPMI-8226 leukemia
SNB-19 CNS = system: SNB-19 CNS
CCRF-CEM leukemia = system: CCRF-CEM leukemia
T-47D breast = system: T-47D breast
PC-3 prostate = system: PC-3 prostate
K-562 leukemia = system: K-562 leukemia
SR leukemia = system: SR leukemia
BT-549 breast = system: BT-549 breast
IGROV1 ovarian = system: IGROV1 ovarian
RXF 393 renal = system: RXF 393 renal
UACC-257 melanoma = system: UACC-257 melanoma
HCT-116 colon = system: HCT-116 colon
TK-10 renal = system: TK-10 renal
SF-268 CNS = system: SF-268 CNS
NCI-H522 lung = system: NCI-H522 lung
NCI-H226 lung = system: NCI-H226 lung
OVCAR-4 ovarian = system: OVCAR-4 ovarian

For COc1ccc2c(c1)/C(=C\c1c(C)nc3n1CCS3)C(=O)N2, the TGI (SN12C renal) was 73.8 µM, the TGI (NCI/ADR-RES ovarian) was > 100 µM and the TGI (SF-295 CNS) was 98.9 µM. The TGI (COLO 205 colon) was 41.9 µM, the TGI (SK-MEL-28 melanoma) was > 100 µM and the TGI (SK-OV-3 ovarian) was 63.3 µM. The TGI (OVCAR-8 ovarian) was > 100 µM, the TGI (HOP-62 NSCLC) was > 100 µM and the TGI (ACHN renal) was > 100 µM. For the same compound, the TGI (HCT-15 colon) was > 100 µM, the TGI (MDA-N) was 13.6 µM and the TGI (KM12 colon) was > 100 µM. The TGI (A549 NSCLC) was > 100 µM, the TGI (HOP-92 NSCLC) was > 100 µM and the TGI (DU-145 prostate) was > 100 µM. For the same compound, the TGI (MDA-MB-231 breast) was > 100 µM, the TGI (786-0 renal) was > 100 µM and the TGI (MDA-MB-435) was 11.5 µM. The TGI (HT29 colon) was > 100 µM, the TGI (NCI-H23 lung) was > 100 µM and the TGI (LOX IMVI melanoma) was > 100 µM. For the same compound, the TGI (HL-60(TB) leukemia) was 66.8 µM, the TGI (A498 renal) was 99.6 µM and the TGI (OVCAR-5 ovarian) was > 100 µM. The TGI (EKVX NSCLC) was > 100 µM, the TGI (SK-MEL-5 melanoma) was > 100 µM and the TGI (MCF7 breast) was > 100 µM. The TGI (SNB-75 CNS) was > 100 µM, the TGI (NCI-H460 lung) was > 100 µM and the TGI (OVCAR-3 ovarian) was 76 µM. For the same compound, the TGI (HCC-2998 colon) was > 100 µM, the TGI (UO-31 renal) was > 100 µM and the TGI (CAKI-1 renal) was > 100 µM. For the same compound, the TGI (SF-539 CNS) was 54.7 µM, the TGI (SK-MEL-2 melanoma) was > 100 µM and the TGI (UACC-62 melanoma) was > 100 µM. The TGI (M14 melanoma) was 93.7 µM, the TGI (MOLT-4 leukemia) was > 100 µM and the TGI (U251 CNS) was 60 µM. For the same compound, the TGI (SW-620 colon) was > 100 µM, the TGI (RPMI-8226 leukemia) was > 100 µM and the TGI (SNB-19 CNS) was > 100 µM. The TGI (CCRF-CEM leukemia) was > 100 µM, the TGI (T-47D breast) was > 100 µM and the TGI (PC-3 prostate) was 55.2 µM. The TGI (K-562 leukemia) was > 100 µM, the TGI (SR leukemia) was > 100 µM and the TGI (BT-549 breast) was 86.3 µM. For the same compound, the TGI (IGROV1 ovarian) was > 100 µM, the TGI (RXF 393 renal) was > 100 µM and the TGI (UACC-257 melanoma) was > 100 µM. The TGI (HCT-116 colon) was > 100 µM and the TGI (TK-10 renal) was > 100 µM.
In the case of COC(=O)C(Cc1cn(C(C)=O)c2ccccc12)P(=O)(OC)OC (stereo not drawn), the TGI (SN12C renal) is reported as > 100 µM, the TGI (NCI/ADR-RES ovarian) is reported as > 100 µM and the TGI (SF-295 CNS) is reported as > 100 µM. For the same compound, the TGI (COLO 205 colon) was > 100 µM, the TGI (SK-MEL-28 melanoma) was > 100 µM and the TGI (OVCAR-8 ovarian) was > 100 µM. For the same compound, the TGI (ACHN renal) was > 100 µM, the TGI (HCT-15 colon) was > 100 µM and the TGI (MDA-N) was > 100 µM. The TGI (KM12 colon) was > 100 µM, the TGI (A549 NSCLC) was > 100 µM and the TGI (HOP-92 NSCLC) was > 100 µM. For the same compound, the TGI (DU-145 prostate) was > 100 µM, the TGI (SF-268 CNS) was > 100 µM and the TGI (MDA-MB-231 breast) was > 100 µM. For the same compound, the TGI (MDA-MB-435) was > 100 µM, the TGI (HT29 colon) was > 100 µM and the TGI (NCI-H23 lung) was > 100 µM. For the same compound, the TGI (NCI-H522 lung) was > 100 µM, the TGI (HL-60(TB) leukemia) was > 100 µM and the TGI (A498 renal) was > 100 µM. For the same compound, the TGI (OVCAR-5 ovarian) was > 100 µM, the TGI (SK-MEL-5 melanoma) was > 100 µM and the TGI (NCI-H226 lung) was > 100 µM. The TGI (MCF7 breast) was > 100 µM, the TGI (SNB-75 CNS) was > 100 µM and the TGI (NCI-H460 lung) was > 100 µM. The TGI (OVCAR-3 ovarian) was > 100 µM, the TGI (HCC-2998 colon) was > 100 µM and the TGI (UO-31 renal) was > 100 µM. The TGI (CAKI-1 renal) was > 100 µM, the TGI (SF-539 CNS) was > 100 µM and the TGI (UACC-62 melanoma) was > 100 µM. For the same compound, the TGI (M14 melanoma) was > 100 µM, the TGI (U251 CNS) was > 100 µM and the TGI (SW-620 colon) was > 100 µM. The TGI (RPMI-8226 leukemia) was > 100 µM, the TGI (SNB-19 CNS) was > 100 µM and the TGI (CCRF-CEM leukemia) was > 100 µM. For the same compound, the TGI (T-47D breast) was > 100 µM, the TGI (PC-3 prostate) was > 100 µM and the TGI (K-562 leukemia) was > 100 µM. The TGI (SR leukemia) was > 100 µM, the TGI (BT-549 breast) was > 100 µM and the TGI (IGROV1 ovarian) was > 100 µM. For the same compound, the TGI (OVCAR-4 ovarian) was > 100 µM, the TGI (RXF 393 renal) was > 100 µM and the TGI (UACC-257 melanoma) was > 100 µM. The TGI (HCT-116 colon) was > 100 µM and the TGI (TK-10 renal) was > 100 µM.
